Experimental data as given in US20210353784A1, “DETECTING AND TREATING CANCERS USING CELL PENETRANT MTP53-OLIGOMERIZATION-DOMAIN PEPTIDE” (priority 2020, published 2021).
Where two headings read alike, the source gives them in different places.

Columns and labels:
[1] = system: MDA-MB-468 cells compared to MCF7 cells; details: 2 h
Experimental: FlowJo software was used to analyze the cytometric data.
The cellular uptake of Cy5p53Tet in these two cell lines was also measured using flow cytometry.
In Vitro Cy5p53Tet Cellular Uptake by Flow Cytometry. Fluorescence-activated cell-sorting (FACS) was used to determine the cellular uptake of Cy5p53Tet. MCF7 and MDA-MB-468 cells were seeded in six-well plates at a density of 5×10^5 cells/well and incubated at 37° C. overnight. On the following day, media were replaced with fresh media containing vehicle control or 100 or 500 nM Cy5p53Tet and further incubated at 37° C. for 2 h. Cells were washed two times with PBS and trypsinized at 37° C. for 5 min. Trypsin was neutralized by adding media, and the cell suspension was spun down. Cell pellets were washed with PBS and resuspended in PBS. FACS was performed on a FACScan (BD Biosciences), processing 2×10^4 events for each sample.

[2] = system: MCF7 and MDA-MB-468 xenografts; assay: NIRF imaging of Cy5p53Tet in mice bearing bilateral MCF7/MDA-MB-468 xenografts (in vivo and ex vivo epifluorescence); details: in vivo, after intravenous administration, 10 nmol
Experimental: At 40, 80, and 180 min after injection, mice were sacrificed, and the xenografts were resected and imaged ex vivo (FIG. 2C).
NIRF Imaging of Cy5p53Tet in Mice Bearing Bilateral MCF7/MDA-MB-468 Xenografts. Female athymic nude mice (6-10 weeks old, 01B74-Athymic NCr-nu/nu;) were obtained from Charles River Laboratories. Animals were supplemented with 17β-estradiol with a dose of 0.72 mg/pellet (60-day release) into the neck 7 days before MCF7 cells were subcutaneous implanted. 5×10^6 cells/mouse MCF7 cells were suspended in 100 μL of 1:1 media/matrigel basement membrane matrix (Corning) and injected subcutaneously on the left flank of each mouse (n≥3/group). After 4 weeks, 5×10^6 cells/mouse MDA-MB-468 cells were subcutaneously implanted in the right flank of the mouse in 100 μL of 1:1 media/matrigel basement membrane matrix. Imaging experiments were performed when the tumors reached a volume of ˜50-250 mm^3 (after approximately 3 weeks). Cy5p53Tet (10 nmol) was injected into the tail vein of each mouse. Prior to in vivo imaging, the mice were anesthetized with 1.5-2.0% isoflurane (Baxter Healthcare). Images were collected using an IVIS Spectrum (Perkin Elmer) 12 min, 30 min, and 3 h following the administration of Cy5p53Tet. […] Fluorescence imaging was carried out with excitation and emission wavelengths of 640 and 680 nm, respectively. […]

WHIM6 and WHIM25 tumors = assay: SDS-PAGE Cy5 signal of protein extracts from WHIM6 and WHIM25 PDX tumors; assay type: in vivo, NSG mice; details: SDS-PAGE of tumor extracts
Experimental: First, WHIM6/WHIM25 bilateral PDX tumor-bearing NSG mice were tail vein injected with 10 nmol of Cy5p53Tet peptide to study its delivery efficacy (FIG. 5A). Then, the WHIM6 and WHIM25 tumors were removed at 1, 2, and 3 hr post-injection. Uptake of the Cy5p53Tet peptide in WHIM6 and WHIM25 tumors was assessed on an in vivo epifluorecent imaging system (IVIS). […] The Cy5p53Tet peptide signal was investigated in PDX tumor tissue by extracting proteins from the WHIM6 and WHIM25 tumors post-injection with the Cy5p53Tet peptide at 1 hr, 2 hr, and 3 hr, and the Cy5p53Tet peptide effects were characterized in PDX models (FIG. 5B). Samples were run on 12% polyacrylamide gel and the Cy5p53Tet peptide accumulated in tumors was scanned at Cy5 channel and quantified. […] In addition, p53 and MDM2 protein levels were checked upon Cy5p53Tet peptide treatment in PDX tumors.

[3] = system: p53, p73 and PARP1 protein levels in WHIM6 and WHIM25 tumors; assay: Western blot of p53, p73 and PARP1 protein levels in PDX tumors after Cy5p53Tet injection; assay type: in vivo, NSG mice
Experimental: 25 μg of proteins were run on 12% polyacrylamide gel and the Cy5p53Tet peptide accumulated in tumors was scanned at Cy5 channel and quantified. The intensity of Cy5p53Tet peptide was analyzed by ImageJ. p53 and MDM2 protein levels from the WHIM6 and WHIM25 tumors post-injection with Cy5p53Tet peptide at 1 hr, 2 hr and 3 hr were determined by Western blot analysis. 25 ug of proteins were load on 12% SDS-PAGE gel.
FIG. 5C is a Western blot analysis showing p53, p63 and p73 protein levels from the WHIM6 and WHIM25 tumors 2 hr post injection with Cy5p53Tet peptide. 75 ug of proteins were load on 10% SDS-PAGE gel (left panel). p53, PARP1 and p73 protein levels from the WHIM6 and WHIM25 tumors 1 hr, 2 hr and 3 hr post injection with Cy5p53Tet peptide were determined by Western blot analysis (right panel). 50 ug of proteins were load on 10% SDS-PAGE gel.
PDX models have been used in translational cancer research to validate the mechanisms that link specific biomarkers to treatment efficacy that could make clinical decisions. The coexpression of mtp53 and PARP1 proteins can be biomarkers for companion diagnostics using PDX models with mtp53. […] Uptake of the Cy5p53Tet peptide in WHIM6 and WHIM25 tumors was assessed on an in vivo epifluorecent imaging system (IVIS). The Cy5p53Tet peptide was detected in both TNBC PDX tumors; however, there was a higher Cy5 fluorescence signal in the tumor site of WHIM6 compared to tumor site of WHIM25 (FIG. 5A, represent picture of 2 hr post injection). […] Samples were run on 12% polyacrylamide gel and the Cy5p53Tet peptide accumulated in tumors was scanned at Cy5 channel and quantified. […]
Given the high degree of structural similarity of the tetramerization domain shared by the p53 family members, p63, and p73, the Cy5p53Tet peptide is believed to bind to TD of p63 or p73 and cause the Cy5p53Tet peptide accumulation in WHIM6 tumors. […] A higher level of p63 was detected in WHIM6 than in WHIM25 tumors (FIG. 5C left panel, compare lane 1 to 2). p73 protein levels were very low in both WHIM6 and WHIM25 tumors. […]

Substance: H-CysCy5-RKKRRQRRGEYFTLQIRGRERFEMFRELNEALELK-OH (N-terminal Cy5; Synthetic peptide based on p53 protein) [Cy5p53Tet]
- geometric MFI, mtp53-expressing MDA-MB-468 cells vs MCF7 cells ([1]; 100 nM): 1.58 fold
- geometric MFI, mtp53-expressing MDA-MB-468 cells vs MCF7 cells ([1]; 500 nM): 1.65 fold
- NIRF signal in MCF7 tumors [2]: no signal
- NIRF signal in MDA-MB-468 tumors [2]: clearly observed
- retention of Cy5p53Tet in mtp53 R273H WHIM25 versus wtp53 WHIM6 (WHIM6 and WHIM25 tumors): longer
- mtp53 and wtp53 protein levels upon treatment ([3]; WHIM25 and WHIM6 tumors): not affected
- PARP1 protein levels in response to the peptide ([3]; mtp53 WHIM25 tumor samples): deceased
- p73 protein levels in response to the peptide ([3]; mtp53 WHIM25 tumor samples): increased
